US11560360B2, “Therapeutic compounds” (ARIZONA BOARD OF REGENTS ON BEHALF OF ARIZONA STATE …, priority 2016, dated 2023)

Key:
[1] = tested on: mitochondrial inner membrane potential in FRDA lymphocytes; assay: JC-1 mitochondrial membrane potential (Δψm) assay; assay type: cell-based, human; conditions: 16 h pre-treatment, JC-1, FACS (FIG. 4)
Protocol: In each analysis, 10000 events were recorded. Depolarization with carbonyl cyanide p-(trifluoromethoxy) phenylhydrazone (FCCP), was used to serve as a positive control.
The ability of 1-5 to maintain mitochondrial membrane potential (ΔΨm) compared to the parent compound MV was studied. ΔΨm was determined using the cationic fluorescent dye 5, 5′, 6, 6′-tetrachloro-1, 1′, 3, 3′-tetraethylbenzimidazolyl carbocyanine iodide (JC-1), which is a lipophilic cation that selectively accumulates in mitochondria due to the negative potential across the inner mitochondrial membrane. The dye exists as a monomer at low concentrations giving a green fluorescence. […] Therefore, mitochondrial depolarization is indicated by a decrease in red/green fluorescence ratio. […]
The ability of the test compounds to depolarize or maintains mitochondrial inner membrane potential (Δψm) was assessed using the JC-1 probe. […] JC-1 is a dual stain, which can identify high membrane potential through J-aggregates (red fluorescence) and low membrane potential through J-monomers (green fluorescence). […] Cells were resuspended in phosphate buffered saline supplemented with 20 mM glucose and were analyzed immediately by FACS (C6 Accuri, BD Biosciences, San Jose, Calif.), using a 488 nm excitation laser and the FL1-H channel 530±15 nm emission filter and the FL2-H channel 585±15 nm. […]

FRDA lymphocytes [2] = assay: Cytotoxicity assay in FRDA lymphocytes cultured in glucose free media (galactose), Live/Dead flow cytometry; assay type: cell-based
Protocol: Flow cytometric determination of cell viability by fluorescence labeling was used employing calcein acetoxy-methyl-ester and ethidium homodimer-1 as live and dead cell stains
Cytotoxicity was assessed by the dye exclusion method. Live cells have intact membranes, which exclude a variety of dyes that easily penetrate the damaged, permeable membranes of non-viable cells. Propidium iodide, a membrane impermeant dye, is generally excluded from viable cells, although it can enter non-viable cells and bind to double-stranded DNA by intercalating between base pairs. Compounds 1-5 were tested for their cytotoxicity in FRDA lymphocytes using FACS analysis with propidium iodide. The results are depicted in FIG. 2. From the results it is evident that cytotoxicity decreases with increasing lipophilicity in lower as well as higher concentrations for compounds 1-5.
Evaluation of compounds 1-5 for their cytotoxicity and their ability to function within the mitochondrial respiratory chain was carried out by incubation of the prepared compounds for 24 or 48 h with FRDA lymphocytes. A nutrient-sensitized screening strategy has been used by culturing FRDA cells in galactose as the sole sugar source which forces mammalian cells to rely on mitochondrial oxidative phosphorylation (OXPHOS) to produce their ATP; they also become more sensitive to mitochondrial respiratory chain inhibitors than cells grown in glucose medium. Compounds 1-5 were tested for their cytotoxicity in FRDA lymphocytes using a simultaneous staining with a two-color fluorescence assay, the Live/Dead® Viability/Cytotoxicity Kit (Molecular Probes). This assay is used to measure two recognized parameters of cell viability, intracellular esterase activity and plasma integrity. The membrane-impermeant DNA dye ethidium homodimer-1 (EthD-1) was used to identify dead cells whose plasma membrane integrity was disrupted. The membrane-permeant dye calcein-AM was used to label live cells. It penetrates into the cells where it is metabolized by cytoplasmic esterases and becomes a fluorescent but membrane-impermeant probe which is retained in viable cells. One mL of FRDA lymphocyte cells (5×10^5 cells) was plated in a 24-well plate in glucose free media (galactose 25 mM), treated with the test compounds and incubated at 37° C. for 24 h or 48 h in a humidified atmosphere containing 5% CO2 in air. Cells were collected by centrifugation at 300×g for 3 min and washed with phosphate buffered saline. […] The samples were analyzed immediately by flow cytometry (C6 Accuri, BD Biosciences, San Jose, Calif.), using a 488 nm excitation laser and the and the FL1-H channel 530±15 nm emission filter and the FL2-H channel 585±15 nm. For each analysis 10,000 events were recorded and analyzed using C6 Accuri software (BD Biosciences).

FRDA lymphocytes [3] = assay: Measurement of cellular ATP concentration (firefly luciferase); assay type: cell-based, human; conditions: glucose free media (25 mM galactose), relative to untreated control (FIG. 6)
Protocol: Results are expressed as percentage of total ATP relative to untreated control.
ATP levels in FRDA lymphocytes were measured using firefly luciferase. The cells were grown on glucose-free media supplemented with galactose for 24 h prior to the addition of the test compounds. Since cells grown in galactose rely mostly on oxidative phosphorylation (OX-PHOS) to produce their ATP, they become more sensitive to mitochondrial respiratory chain inhibitors than cells grown in glucose medium.
Measurement of Cellular ATP Concentration
Total ATP levels in FRDA lymphocytes with or without partially blocking complex I activity with rotenone (5 nM) were measured using firefly luciferase as a means to measure ATP level. The cells were grown on glucose-free media supplemented with galactose. Since cells grown in galactose rely mostly on oxidative phosphorylation (OXPHOS) to produce their ATP, they become more sensitive to mitochondria respiratory chain inhibitors than cells grown in glucose medium. Briefly, lymphocytes (2×10^5 cell/mL) were plated (1 mL) in 24-well plates, treated with the test compounds, and then incubated at 37° C. for 48 h in a humidified atmosphere containing 5% CO2 in air. FRDA lymphocytes with partial inhibition of complex I, cells were preincubated with test compounds for overnight before rotenone (5 nM) treatment for 24 h. Cells in each well were mixed and transferred (100 μL) to 96-well microtiter black-walled cell culture plates (Costar, Corning, N.Y.). The total intracellular ATP level was measured in a luminator (Clarity™ luminescence microplate reader) using an ATP Bioluminescence Assay Kit (ViaLight®-Plus ATP monitoring reagent kit, Lonza) following the manufacturer's protocol. The total ATP level was expressed as a percentage of untreated control. Data are reported as the mean of at least three independent experiments.

| SMILES | preservation of mitochondrial membrane potential (Δψm) [1] | cytotoxicity (FRDA lymphocytes [2]; FRDA lymphocytes on galactose for 48 h (FIG. 2)) | cytotoxicity (FRDA lymphocytes [2]; FRDA lymphocytes, 0.5-2.5 μM concentrations) | cellular ATP levels (FRDA lymphocytes [3]) |
| --- | --- | --- | --- | --- |
| CN(C)c1ccc2nc3ccc(=[N+](C)C)cc-3sc2c1 [MB, Methylene blue, reference compound] | significantly depolarized Δψm | cytotoxic | strong cytotoxicity | inhibited ATP production, especially at higher concentrations |
| CN(C)c1ccc2nc3ccc(=O)cc-3sc2c1 [MV, Methylene violet, reference compound] | significantly depolarized Δψm |  |  | strongly reduces cellular ATP levels in a concentration dependent manner |
